Our source for the EC50 values is patent US8575135B2 (Gilead Sciences, Inc., priority 2011, dated 2013).

What all share (assay): microbe, parasite or virus in culture
What all share (conditions): Hepatitis C virus

In test [1] the test system is stable HCV 2a JFH-1 Rluc replicon cells (L31 present in NS5A). In kind it is cell-based.
The test system of test [2] is NS5A chimeric genotype 1b Con1 replicon with genotype 4a ED43 strain NS5A gene. In kind it is cell-based, HCV.
Test [3] relates to stable HCV 1a RLuc replicon cells (genotype 1a H77 replicon). Type of test: cell-based.
Test [4] has as its system NS5A chimeric genotype 2a JFH-1 replicon with genotype 2b MD2b-1 strain NS5A gene (M31 present). Type of test: cell-based, HCV. In short, it runs like this:
(§1)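 Con1 1b replicons carrying 3a S52 or 4a ED43 NS5A with Pi-RLuc reporter were transiently transfected into Huh-Lunet cells; 2b MD2b-1 NS5A (M31) in JFH-1 2a backbone with RLuc-Neo, transient or stable.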

Test [5] has as its system NS5A chimeric genotype 2a JFH-1 replicon with genotype 2a J6 strain NS5A gene (M31 present). In kind it is cell-based, HCV.
The test system of test [6] is NS5A chimeric genotype 1b Con1 replicon with genotype 3a S52 strain NS5A gene. In kind it is cell-based, HCV. In outline: as §1
Test [7] has as its system 1a Pi-Rluc replicon with Q30R in genotype 1a NS5A. In kind it is cell-based, HCV. On the procedure: Antiviral potency (EC50) was determined using a Renilla luciferase (RLuc)-based HCV replicon reporter assay. […] To perform the assay for genotype 2a (with M31 present in NS5A) or 2b, NS5A chimeric genotype 2a JFH-1 replicons that encodes a RLuc-Neo reporter and either genotype 2a J6 strain NS5A gene or genotype 2b MD2b-1 strain NS5A gene (both with M31 present) respectively, were either transiently transfected (t) into Huh-Lunet cells or were established as stably replicating replicon cells (s) is provided. Either cells were dispensed into 384-well plates for EC50 assays. To perform the assay for genotype 3 and 4, NS5A chimeric genotype 1b Con1 replicons that encodes a Pi-RLuc reporter and either genotype 3a S52 strain NS5A gene or genotype 4a ED43 strain NS5A gene respectively, were transiently transfected (t) into Huh-Lunet cells, which were subsequently dispensed into 384-well plates. Compounds were dissolved in DMSO at a concentration of 10 mM and diluted in DMSO either manually or using an automated pipeting instrument. Serially 3-fold diluted compounds were either manually mixed with cell culture media and added to the seeded cells or directly added to the cells using an automated instrument. […] 72 hours later, cells were lysed and Renilla luciferase activity quantified as recommended by the manufacturer (Promega-Madison, Wis.). Non-linear regression was performed to calculate EC50 values.
To determine the antiviral potency (EC50) against resistance mutants, resistance mutations, including M28T, Q30R, Q30H, L31M, and Y93C in genotype 1a NS5A and Y93H in genotype 1b NS5A, were introduced individually into either 1a Pi-Rluc or 1b Pi-Rluc replicons by site directed mutagenesis. Replicon RNA of each resistant mutant was transiently transfected into Huh-7-derived cured-51 cells and antiviral potency was determined on these transfected cells as described above.

Where two headings read alike, the source gives them in different places.

As to `COC(=O)N[C@H](C(=O)N1[C@@H](C)CC[C@H]1c1ncc(-c2ccc3c(c2)COc2cc4c(ccc5nc([C@@H]6CCCN6C(=O)[C@@H](NC(=O)OC)[C@@H](C)OC)[nH]c54)cc2-3)[nH]1)C(C)C` [Compound 603], the EC50 was under 1 nM in test [1] (read-out: 2a JFH); 0.007 nM in test [1] (read-out: 2a JFH (nM)); under 1 nM in test [2] (read-out: 4a); 0.022 nM in test [2] (read-out: 4a (s) (nM)); under 1 nM in test [3] (read-out: 1a); 0.009 nM in test [3] (read-out: 1a (nM)). Further, the EC50 in test [4] (read-out: 2b) is under 1 nM; in test [4] (read-out: 2b (s) (nM)), 0.088 nM; in test [4] (read-out: 2b (t) (nM)), 0.067 nM; in test [5] (read-out: 2a J6), under 1 nM; in test [5] (read-out: 2a Jb (t) (nM)) it was 0.194 nM; in test [6] (read-out: 3a), under 1 nM. For the same compound, the EC50 in test [6] (read-out: 3a (nM)) was 0.015 nM; in test [7] (read-out: 1a Q30R) it was under 1 nM; in test [7] (read-out: 1a Q30R (nM)), 0.146 nM.

`COC[C@H]1C[C@@H](c2nc3ccc4cc5c(cc4c3[nH]2)OCc2cc(-c3cnc([C@@H]4CCCN4C(=O)[C@H](NC(=O)OC)c4ccccc4)[nH]3)ccc2-5)N(C(=O)[C@@H](NC(=O)OC)C(C)C)C1` [Example MM, methyl {(1R)-2-[(2S)-2-(5-{2-[(2S,4S)-1-{(2S)-2-[(methoxycarbonyl)amino]-3-methylbutanoyl}-4-(methoxymethyl)pyrrolidin-2-yl]-1,11-dihydroisochromeno[4′,3′:6,7]naphtho[1,2-d]imidazol-9-yl}-1H-imidazol-2-yl)pyrrolidin-1-yl]-2-oxo-1-phenylethyl}carbamate]: the EC50 is under 1 nM in test [1] (read-out: 2a JFH); 0.007 nM in test [1] (read-out: 2a JFH (nM)); under 1 nM in test [2] (read-out: 4a); 0.016 nM in test [2] (read-out: 4a (s) (nM)); 0.017 nM in test [2] (read-out: 4a (t) (nM)); under 1 nM in test [3] (read-out: 1a). The EC50 in test [3] (read-out: 1a (nM)) is 0.022 nM; in test [4] (read-out: 2b) it was under 1 nM; in test [4] (read-out: 2b (s) (nM)) it was 0.042 nM; in test [4] (read-out: 2b (t) (nM)), 0.015 nM; in test [5] (read-out: 2a J6), under 1 nM; in test [5] (read-out: 2a J6 (s) (nM)), 0.064 nM. The EC50 in test [5] (read-out: 2a Jb (t) (nM)) is 0.018 nM; in test [6] (read-out: 3a), under 1 nM; in test [6] (read-out: 3a (nM)), 0.02 nM; in test [7] (read-out: 1a Q30R) it was under 1 nM; in test [7] (read-out: 1a Q30R (nM)) it was 0.044 nM.

As to `COC[C@@H]1C[C@@H](c2nc3ccc4cc5c(cc4c3[nH]2)OCc2cc(-c3cnc([C@@H]4CCCN4C(=O)[C@@H](NC(=O)OC)C(C)C)[nH]3)ccc2-5)N(C(=O)[C@H](NC(=O)OC)c2ccccc2)C1` [Example MQ, methyl{(1R)-2-[(2S,4R)-2-(9-{2-[(2S)-1-{(2S)-2-[(methoxycarbonyl)amino]-3-methylbutanoyl}pyrrolidin-2-yl)-1H-imidazol-5-yl]-1,11-dihydroisochromeno[4′,3′:6,7]naphtho[1,2-d]imidazol-2-yl}-4-(methoxymethyl)pyrrolidin-1-yl]-2-oxo-phenylethyl}carbamate], the EC50 was under 1 nM in test [1] (read-out: 2a JFH); 0.004 nM in test [1] (read-out: 2a JFH (nM)); under 1 nM in test [2] (read-out: 4a); 0.011 nM in test [2] (read-out: 4a (t) (nM)); under 1 nM in test [3] (read-out: 1a); 0.008 nM in test [3] (read-out: 1a (nM)). Moreover, the EC50 in test [4] (read-out: 2b) is under 1 nM; in test [4] (read-out: 2b (s) (nM)) it was 0.023 nM; in test [4] (read-out: 2b (t) (nM)), 0.009 nM; in test [5] (read-out: 2a J6), under 1 nM; in test [5] (read-out: 2a J6 (s) (nM)), 0.095 nM; in test [5] (read-out: 2a Jb (t) (nM)), 0.017 nM. Further, the EC50 in test [6] (read-out: 3a) is under 1 nM; in test [6] (read-out: 3a (nM)) it was 0.016 nM; in test [7] (read-out: 1a Q30R) it was under 1 nM; in test [7] (read-out: 1a Q30R (nM)) it was 0.023 nM.

For `COC[C@H]1C[C@@H](c2nc3c([nH]2)-c2cc4c(cc2CC3)-c2ccc(-c3cnc([C@@H]5CCCN5C(=O)[C@@H](NC(=O)OC)C(C)C)[nH]3)cc2CO4)N(C(=O)[C@H](NC(=O)OC)c2ccccc2)C1` [Example MR, methyl{(1R)-2-[(2S,4S)-2-(9-{2-[(2S)-1-{(2S)-2-[(methoxycarbonyl)amino]-3-methylbutanoyl}pyrrolidin-2-yl)-1H-imidazol-5-yl]-1,11-dihydroisochromeno[4′,3′:6,7]-4,5-dihydro-naphtho[1,2-d]imidazol-2-yl}-(methoxymethyl)pyrrolidin-1-yl]-2-oxo-1-phenylethyl}carbamate], the EC50 in test [1] (read-out: 2a JFH) is under 1 nM; in test [1] (read-out: 2a JFH (nM)), 0.017 nM; in test [2] (read-out: 4a), under 1 nM; in test [2] (read-out: 4a (t) (nM)) it was 0.045 nM; in test [3] (read-out: 1a), under 1 nM; in test [3] (read-out: 1a (nM)), 0.028 nM. Also, the EC50 in test [4] (read-out: 2b) was under 1 nM; in test [4] (read-out: 2b (s) (nM)), 0.053 nM; in test [4] (read-out: 2b (t) (nM)), 0.039 nM; in test [5] (read-out: 2a J6), under 1 nM; in test [5] (read-out: 2a J6 (s) (nM)), 0.176 nM; in test [5] (read-out: 2a Jb (t) (nM)), 0.079 nM. The EC50 in test [6] (read-out: 3a) is under 1 nM; in test [6] (read-out: 3a (nM)), 0.078 nM; in test [7] (read-out: 1a Q30R) it was under 1 nM; in test [7] (read-out: 1a Q30R (nM)) it was 0.128 nM.

Regarding `COC[C@H]1C[C@@H](c2ncc(-c3ccc4c(c3)COc3cc5c(ccc6nc([C@@H]7CCCN7C(=O)[C@@H](NC(=O)OC)C(C)C)[nH]c65)cc3-4)[nH]2)N(C(=O)[C@H](NC(=O)OC)c2ccccc2)C1` [Example MU, methyl{(1R)-2-[(2S,4S)-2-(5-{2-[(2S)-1-{(2S)-2-[(methoxycarbonyl)amino]-3-methylbutanoyl}-pyrrolidin-2-yl]-1,11-dihydroisochromeno[4′,3′:6,7]naphtho[1,2-d]imidazol-9-yl}-1H-imidazol-2-yl)-4-(methoxymethyl)pyrrolidin-1-yl]-2-oxo-1-phenylethyl}carbamate], the EC50 in test [1] (read-out: 2a JFH) was under 1 nM; in test [1] (read-out: 2a JFH (nM)) it was 0.004 nM; in test [2] (read-out: 4a) it was under 1 nM; in test [2] (read-out: 4a (t) (nM)), 0.011 nM; in test [3] (read-out: 1a) it was under 1 nM; in test [3] (read-out: 1a (nM)), 0.008 nM. Also, the EC50 in test [4] (read-out: 2b) was under 1 nM; in test [4] (read-out: 2b (s) (nM)), 0.025 nM; in test [4] (read-out: 2b (t) (nM)), 0.009 nM; in test [5] (read-out: 2a J6) it was under 1 nM; in test [5] (read-out: 2a J6 (s) (nM)) it was 0.046 nM; in test [5] (read-out: 2a Jb (t) (nM)), 0.013 nM. Besides, the EC50 is under 1 nM in test [6] (read-out: 3a), 0.017 nM in test [6] (read-out: 3a (nM)), under 1 nM in test [7] (read-out: 1a Q30R) and 0.023 nM in test [7] (read-out: 1a Q30R (nM)).

Take `COC(=O)N[C@H](C(=O)N1CCC[C@H]1c1ncc(-c2ccc3c(c2)COc2cc4c(ccc5nc([C@@H]6C[C@H](C)CN6C(=O)[C@H](NC(=O)OC)c6ccccc6)[nH]c54)cc2-3)[nH]1)C(C)C` [Example MY, Methyl {2-[2-{9-[2-(1-{2-[(methoxycarbonyl)amino]-3-methylbutanoyl}pyrrolidin-2-yl)-1H-imidazol-5-yl]-1,11-dihydroisochromeno[4′,3′:6,7]naphtho[1,2-d]imidazol-2-yl}-4-(methyl)pyrrolidin-1-yl]-2-oxo-1-phenylethyl}carbamate]: the EC50 is under 1 nM in test [1] (read-out: 2a JFH); 0.005 nM in test [1] (read-out: 2a JFH (nM)); under 1 nM in test [2] (read-out: 4a); 0.02 nM in test [2] (read-out: 4a (s) (nM)); 0.008 nM in test [2] (read-out: 4a (t) (nM)); under 1 nM in test [3] (read-out: 1a). Further, the EC50 was 0.016 nM in test [3] (read-out: 1a (nM)); under 1 nM in test [4] (read-out: 2b); 0.047 nM in test [4] (read-out: 2b (s) (nM)); 0.016 nM in test [4] (read-out: 2b (t) (nM)); under 1 nM in test [5] (read-out: 2a J6); 0.165 nM in test [5] (read-out: 2a J6 (s) (nM)). In addition, the EC50 in test [5] (read-out: 2a Jb (t) (nM)) is 0.047 nM; in test [6] (read-out: 3a), under 1 nM; in test [6] (read-out: 3a (nM)), 0.01 nM; in test [7] (read-out: 1a Q30R), under 1 nM; in test [7] (read-out: 1a Q30R (nM)), 0.024 nM.
